{"source": "patent US10821115B2", "about": "“Compounds that inhibit Mcl-1 protein” (priority 2017, dated 2020)", "key": {"[1]": {"biological_target": "recombinant human Mcl-1 (residues 171-327) / Bim interaction (Homo sapiens (Human), UniProt Q07820)", "sequence (Q07820 171-327)": "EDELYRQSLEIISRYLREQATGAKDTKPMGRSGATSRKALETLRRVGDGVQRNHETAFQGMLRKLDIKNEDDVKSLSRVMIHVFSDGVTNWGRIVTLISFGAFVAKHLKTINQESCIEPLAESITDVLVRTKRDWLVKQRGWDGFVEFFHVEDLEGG", "test": "biochemical", "assay_type": "binding", "settings": "read-out: Mcl-1 HTRF IC50"}, "[2]": {"system": "human multiple myeloma cell line, OPM-2", "test": "Cell viability assay (OPM-2 10 FBS), CellTiter-Glo", "assay_type": "cell-based", "how_it_was_run": "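Steps: plate cells at 3000/well in 10% FBS growth medium, add serially diluted compound, incubate 16 h at 37 °C with 5% CO2, add detection reagent and read luminescence after 25 min. A 4-parameter logistic model gives IC50.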"}, "[3]": {"settings": "0.1 nM Mcl-1(171-327), 0.05 nM biotin-Bim (51-76)"}, "[4]": {"settings": "Homo sapiens, OPM-2, 16 h, read-out: OPM-2 10% FBS IC50 IP, OPM-2 cells, 10% FBS, 16 h incubation"}, "[5]": {"settings": "TR-FRET, Mcl-1(171-327) / biotin-Bim (51-76)"}, "[6]": {"settings": "Homo sapiens, OPM-2, 16 h, read-out: OPM-2 10% FBS IC50 IP, OPM-2 cells, 10% FBS, 16 h, CellTiter-Glo"}, "[7]": {"settings": "read-out: OPM-2 10% FBS IC50 IP, OPM-2 cells, 10% FBS, 16 h, CellTiter-Glo"}}, "note": "Read-outs that look alike come from different tables or passages of the source.", "data": [{"smiles": "C[C@@H]1[C@@H](C)C/C=C/[C@@](CN2CCN3CCCC[C@@H]3C2)(OCC2CC2)[C@@H]2CC[C@H]2CN2C[C@@]3(CCCc4cc(Cl)ccc43)COc3ccc(cc32)C(=O)NS1(=O)=O", "note": "[Example 155, (1S,3′R,6′R,7′R,8′E,11′S,12′R)-6-chloro-7′-(cyclopropylmethoxy)-11′,12′-dimethyl-7′-((9aR)-octahydro-2H-pyrido[1,2-a]pyrazin-2-ylmethyl)-3,4-dihydro-2H,15′H-spiro[naphthalene-1,22′-[20]oxa[13]thia[1,14]diazatetracyclo [14.7.2.0~3,6~.0~19,24~]pentacosa[8,16,18,24]tetraen]-15′-one 13′,13′-dioxide]", "values": [{"measurement": "IC50", "setting": "[1]; [3]", "value": 0.228, "unit": "nM"}, {"measurement": "IC50", "setting": "[2]; [4]", "value": 378, "unit": "nM"}]}, {"smiles": "CC[C@@H]1CCCC[C@@](O)(COC)[C@@H]2CC[C@H]2CN2C[C@@]3(CCCc4cc(Cl)ccc43)COc3ccc(cc32)C(=O)NS1(=O)=O", "note": "[Example 100039, (1S,3′R,6′R,7′S,12′R)-6-chloro-12′-ethyl-7′-hydroxy-7′-(methoxymethyl)-3,4-dihydro-2H,15′H-spiro[naphthalene-1,22′-[20]oxa[13]thia[1,14]diazatetracyclo [14.7.2.0~3,6~.0~19,24~]pentacosa[16,18,24]trien]-15′-one 13′,13′-dioxide]", "values": [{"measurement": "IC50", "setting": "[1]; [5]", "value": 0.563, "unit": "nM"}, {"measurement": "IC50", "setting": "[2]; [6]", "value": 744, "unit": "nM"}]}, {"smiles": "C[C@@H]1[C@@H](C)CCC[C@](O)(C[C@@H]2CCCN(C)C2)[C@@H]2CC[C@H]2CN2C[C@@]3(CCCc4cc(Cl)ccc43)COc3ccc(cc32)C(=O)NS1(=O)=O", "note": "(single isomer, unassigned) [Example 100400]", "values": [{"measurement": "IC50", "setting": "[1]; [5]", "value": 0.838, "unit": "nM"}, {"measurement": "IC50", "setting": "[2]; [6]", "value": 1320, "unit": "nM"}]}, {"smiles": "C[C@@H]1[C@@H](C)C/C=C/[C@@](O)(c2cnccc2F)[C@@H]2CC[C@H]2CN2C[C@@]3(CCCc4cc(Cl)ccc43)COc3ccc(cc32)C(=O)NS1(=O)=O", "note": "(single isomer, unassigned) [Example 100536]", "values": [{"measurement": "IC50", "setting": "[1]; [5]", "value": 0.204, "unit": "nM"}, {"measurement": "IC50", "setting": "[2]; [6]", "value": 826, "unit": "nM"}]}, {"smiles": "C[C@@H]1[C@@H](C)C/C=C/[C@@]2(COCCO2)[C@@H]2CC[C@H]2CN2C[C@@]3(CCCc4cc(Cl)ccc43)COc3ccc(cc32)C(=O)NS1(=O)=O", "note": "[Example 100264, (2S,3′R,6′R,8′E,11′S,12′R,22′S)-6″-chloro-11′,12′-dimethyl-3″,4″-dihydro-2″H,15′H-dispiro[1,4-dioxane-2,7′-[20]oxa[13]thia[1,14]diazatetracyclo [14.7.2.0~3,6~.0~19,24~]pentacosa[8,16,18,24]tetraene-22′,1″-naphthalen]-15′-one 13′,13′-dioxide]", "values": [{"measurement": "IC50", "setting": "[1]; [5]", "value": 0.384, "unit": "nM"}, {"measurement": "IC50", "setting": "[2]; [7]", "value": 600, "unit": "nM"}]}, {"smiles": "C[C@@H]1[C@@H](C)C/C=C/[C@@](O)(COS(C)(=O)=O)[C@@H]2CC[C@H]2CN2C[C@@]3(CCCc4cc(Cl)ccc43)COc3ccc(cc32)C(=O)NS1(=O)=O", "note": "[Example 100335, ((1S,3′R,6′R,7′S,8′E,11′S,12′R)-6-chloro-7′-hydroxy-11′,12′-dimethyl-13′,13′-dioxido-15′-oxo-3,4-dihydro-2H-spiro[naphthalene-1,22′-[20]oxa[13]thia[1,14]diazatetracyclo [14.7.2.0~3,6~.0~19,24~]pentacosa[8,16,18,24]tetraen]-7′-yl)methyl methanesulfonate]", "values": [{"measurement": "IC50", "setting": "[1]; [5]", "value": 0.319, "unit": "nM"}, {"measurement": "IC50", "setting": "[2]; [6]", "value": 165, "unit": "nM"}]}, {"smiles": "C[C@@H]1[C@@H](C)CCC[C@@](O)(CS(=O)(=O)N2CCN(C)CC2)[C@@H]2CC[C@H]2CN2C[C@@]3(CCCc4cc(Cl)ccc43)COc3ccc(cc32)C(=O)NS1(=O)=O", "note": "[Example 100138, (1S,3′R,6′R,7′S,11′S,12′R)-6-chloro-7′-hydroxy-11′,12′-dimethyl-7′-(((4-methyl-1-piperazinyl)sulfonyl)methyl)-3,4-dihydro-2H,15′H-spiro[naphthalene-1,22′-[20]oxa[13]thia[1,14]diazatetracyclo [14.7.2.0~3,6~.0~19,24~]pentacosa[16,18,24]trien]-15′-one 13′,13′-dioxide]", "values": [{"measurement": "IC50", "setting": "[1]; [5]", "value": 0.549, "unit": "nM"}, {"measurement": "IC50", "setting": "[2]; [7]", "value": 342, "unit": "nM"}]}, {"smiles": "CO[C@@]1(CN2CCN(c3cncnc3)CC2)/C=C/C[C@H](C)[C@@H](C)S(=O)(=O)NC(=O)c2ccc3c(c2)N(C[C@@H]2CC[C@H]21)C[C@@]1(CCCc2cc(Cl)ccc21)CO3", "note": "[Example 305, (1S,3′R,6′R,7′S,8′E,11′S,12′R)-6-chloro-7′-methoxy-11′,12′-dimethyl-7′-((4-(5-pyrimidinyl)-1-piperazinyl)methyl)-3,4-dihydro-2H,15′H-spiro[naphthalene-1,22′-[20]oxa[13]thia[1,14]diazatetracyclo [14.7.2.0~3,6~.0~19,24~]pentacosa[8,16,18,24]tetraen]-15′-one 13′,13′-dioxide]", "values": [{"measurement": "IC50", "setting": "[1]; [3]", "value": 0.33, "unit": "nM"}, {"measurement": "IC50", "setting": "[2]; [4]", "value": 327, "unit": "nM"}]}, {"smiles": "CO[C@@]1(CO)CCC[C@H](C)[C@@H](C)S(=O)(=O)NC(=O)c2ccc3c(c2)N(C[C@@H]2CC[C@H]21)C[C@@]1(CCCc2cc(Cl)ccc21)CO3", "note": "(stereo in doubt) [Example 100133, (1S,3′R,6′R,7′S,11′S,12′R)-6-chloro-7′-(hydroxymethyl)-7′-methoxy-11′,12′-dimethyl-3,4-dihydro-2H,15′H-spiro[naphthalene-1,22′-[20]oxa[13]thia[1,14]diazatetracyclo [14.7.2.0~3,6~.0~19,24~]pentacosa[16,18,24]rien]-15′-one 13′,13′-dioxide]", "values": [{"measurement": "IC50", "setting": "[1]; [5]", "value": 0.885, "unit": "nM"}, {"measurement": "IC50", "setting": "[2]; [7]", "value": 984, "unit": "nM"}]}, {"smiles": "C[C@@H]1[C@@H](C)C[C@H]2CCC[C@](O)(C2)[C@@H]2CC[C@H]2CN2C[C@@]3(CCCc4cc(Cl)ccc43)COc3ccc(cc32)C(=O)NS1(=O)=O", "note": "[Example 100062, (1S,3′R,6′R,7′S,11′R,13′S,14′R)-6-chloro-7′-hydroxy-13′,14′-dimethyl-3,4-dihydro-2H,17′H-spiro[naphthalene-1,24′-[22]oxa[15]thia[1,16]diazapentacyclo [16.7.2.1~7,11~.0~3,6~.0~21,26~]octacosa [18,20,26]trien]-17′-one 15′,15′-dioxide]", "values": [{"measurement": "IC50", "setting": "[1]; [5]", "value": 4.25, "unit": "nM"}, {"measurement": "IC50", "setting": "[2]; [6]", "value": 9940, "unit": "nM"}]}, {"smiles": "CO[C@]1(CCN2CCN3CCCC[C@@H]3C2)/C=C/C[C@H](C)[C@@H](C)S(=O)(=O)NC(=O)c2ccc3c(c2)N(C[C@@H]2CC[C@H]21)C[C@@]1(CCCc2cc(Cl)ccc21)CO3", "note": "[Example 100591, (1S,3′R,6′R,7′R,8′E,11′S,12′R)-6-chloro-7′-methoxy-11′,12′-dimethyl-7′-(2-((9aR)-octahydro-2H-pyrido[1,2-a]pyrazin-2-yl)ethyl)-3,4-dihydro-2H,15′H-spiro[naphthalene-1,22′-[20]oxa[13]thia[1,14]diazatetracyclo [14.7.2.0~3,6~.0~19,24~]pentacosa[8,16,18,24]tetraen]-15′-one 13′,13′-dioxide]", "values": [{"measurement": "IC50", "setting": "[1]; [5]", "value": 0.075, "unit": "nM"}, {"measurement": "IC50", "setting": "[2]; [6]", "value": 60, "unit": "nM"}]}, {"smiles": "CO[C@]1(CN2C[C@@H](C)N(C(C)C)[C@H](C)C2)/C=C/C[C@H](C)[C@@H](C)S(=O)(=O)NC(=O)c2ccc3c(c2)N(C[C@@H]2CC[C@H]21)C[C@@]1(CCCc2cc(Cl)ccc21)CO3", "note": "[Example 343, (1S,3′R,6′R,7′R,8′E,11′S,12′R)-6-chloro-7′-(((3R,5R)-3,5-dimethyl-4-(1-methylethyl)-1-piperazinyl)methyl)-7′-methoxy-11′,12′-dimethyl-3,4-dihydro-2H,15′H-spiro[naphthalene-1,22′-[20]oxa[13]thia[1,14]diazatetracyclo [14.7.2.0~3,6~.0~19,24~]pentacosa[8,16,18,24]tetraen]-15′-one 13′,13′-dioxide]", "values": [{"measurement": "IC50", "setting": "[1]; [3]", "value": 0.093, "unit": "nM"}, {"measurement": "IC50", "setting": "[2]; [4]", "value": 94, "unit": "nM"}]}, {"smiles": "CO[C@@]1(CN2CCN3CCC(F)(F)CC3C2)/C=C/C[C@H](C)[C@@H](C)S(=O)(=O)NC(=O)c2ccc3c(c2)N(C[C@@H]2CC[C@H]21)C[C@@]1(CCCc2cc(Cl)ccc21)CO3", "note": "(mixture of isomers) [Example 273]", "values": [{"measurement": "IC50", "setting": "[1]; [3]", "value": 0.494, "unit": "nM"}, {"measurement": "IC50", "setting": "[2]; read-out: OPM-2 10% FBS IC50 IP, OPM-2 cells, 10% FBS, 16 h incubation", "value": 501, "unit": "nM"}]}, {"smiles": "CO[C@]1(CN2CCN3C(=O)COC[C@@H]3C2)/C=C/C[C@H](C)[C@@H](C)S(=O)(=O)NC(=O)c2ccc3c(c2)N(C[C@@H]2CC[C@H]21)C[C@@]1(CCCc2cc(Cl)ccc21)CO3", "note": "[Example 140, (1S,3′R,6′R,7′R,8′E,11′S,12′R)-6-chloro-7′-methoxy-11′,12′-dimethyl-7′-(((9aS)-4-oxohexahydropyrazino[2,1-c][1,4]oxazin-8(1H)-yl)methyl)-3,4-dihydro-2H,15′H-spiro[naphthalene-1,22′-[20]oxa[13]thia[1,14]diazatetracyclo [14.7.2.0~3,6~.0~19,24~]pentacosa[8,16,18,24]tetraen]-15′-one 13′,13′-dioxide]", "values": [{"measurement": "IC50", "setting": "[1]; [3]", "value": 0.098, "unit": "nM"}, {"measurement": "IC50", "setting": "[2]; [4]", "value": 125, "unit": "nM"}]}, {"smiles": "COCc1nc(C[C@]2(OC)/C=C/C[C@H](C)[C@@H](C)S(=O)(=O)NC(=O)c3ccc4c(c3)N(C[C@@H]3CC[C@H]32)C[C@@]2(CCCc3cc(Cl)ccc32)CO4)oc1C", "note": "[Example 100585, (1S,3′R,6′R,7′S,8′E,11′S,12′R)-6-chloro-7′-methoxy-7′-((4-(methoxymethyl)-5-methyl-1,3-oxazol-2-yl)methyl)-11′,12′-dimethyl-3,4-dihydro-2H,15′H-spiro[naphthalene-1,22′-[20]oxa[13]thia[1,14]diazatetracyclo [14.7.2.0~3,6~.0~19,24~]pentacosa[8,16,18,24]tetraen]-15′-one 13′,13′-dioxide]", "values": [{"measurement": "IC50", "setting": "[1]; [5]", "value": 0.057, "unit": "nM"}, {"measurement": "IC50", "setting": "[2]; [6]", "value": 696, "unit": "nM"}]}, {"smiles": "C[C@@H]1[C@@H](C)CCC[C@](O)(CC(=O)Nc2ccncn2)[C@@H]2CC[C@H]2CN2C[C@@]3(CCCc4cc(Cl)ccc43)COc3ccc(cc32)C(=O)NS1(=O)=O", "note": "[Example 100174, 2-((1S,3′R,6′R,7′S,11′S,12′R)-6-chloro-7′-hydroxy-11′,12′-dimethyl-13′,13′-dioxido-15′-oxo-3,4-dihydro-2H-spiro[naphthalene-1,22′-[20]oxa[13]thia[1,14]diazatetracyclo [14.7.2.0~3,6~.0~19,24~]pentacosa[16,18,24]trien]-7′-yl)-N-4-pyrimidinylacetamide]", "values": [{"measurement": "IC50", "setting": "[1]; [5]", "value": 2.02, "unit": "nM"}, {"measurement": "IC50", "setting": "[2]; [6]", "value": 1910, "unit": "nM"}]}]}
